Where “and” joins values, the source holds several entries; their conditions need not be identical. Equal values may be shown once. Read-outs that look alike come from different tables or passages of the source.
Assay: Pharmacokinetic study in mice
Type: in vivo
Details: for plasma concentration, individual mice: mice 1-8 in order
Procedure: Pharmacokinetic parameters of amphenmulin were measured according to previous reports with some modifications. Each group consisted of eight female SPF-ICR mice. Amphenmulin (1 mg/mL) was administered intravenously, intraperitoneally, and orally at a dose of 10 mg/kg, respectively. Formulation of amphenmulin was a filtered solution in 5% DMSO, 5% Tween-80, and 90% normal saline. Serial samples (each 0.2 mL) were collected from the ocular venous plexus and placed in a plastic centrifuge tube. The blood samples were placed at room temperature for 20 min and transferred to a 4 °C refrigerator for 12 h to promote blood coagulation. Then samples were centrifuged at 2000 r/min for 10 min to get serum. Serum samples were frozen at −20°C. 100 µL of samples was accurately absorbed and mixed with 100 µL of acetonitrile in a 1.5 mL centrifuge tube. The sample was mixed vigorously and centrifuged at 12,000 rpm for 10 min. The supernatant was transferred, filtered through a 0.22 μm cellulose membrane filter and used for LC-MS/MS analysis. Equipment and analysis conditions were shown in supplemental data. The pharmacokinetic parameters of amphenmulin were determined from the mean plasma concentration with noncompartmental analysis in WinNonlin 5.2 software (Pharsight, Mountain View, CA, USA). Data were shown as mean ± standard deviation (SD).

[1] = female, ICR, mouse, plasma, mice, 10 mg/kg, intravenous
[2] = female, ICR, mouse, plasma, mice, 10 mg/kg, oral

`C=C[C@]1(C)C[C@@H](OC(=O)CSc2ccccc2N)[C@]2(C)[C@H](C)CC[C@]3(CCC(=O)[C@H]32)[C@@H](C)[C@@H]1O` [Amphenmulin, 22-(2-amino-phenylsulfanyl)-22-deoxypleuromutilin] gave a concentration at 12 h (female, ICR, mouse, plasma, iv, 10 mg/kg, mice, intravenous 10 mg/kg, 12 h, n = 8, read-out: plasma concentration, mean ± S.D) of 50 ± 10 ng/mL, a concentration at 0.25 h (female, ICR, mouse, plasma, po, 10 mg/kg, mice, oral 10 mg/kg, 0.25 h, n = 8, read-out: plasma concentration, mean ± S.D) of 90 ± 50 ng/mL and a concentration at 0.5 h (female, ICR, mouse, plasma, po, 10 mg/kg, mice, oral 10 mg/kg, 0.5 h, n = 8, read-out: plasma concentration, mean ± S.D) of 310 ± 110 ng/mL. For the same compound, the concentration at 1 h (female, ICR, mouse, plasma, po, 10 mg/kg, mice, oral 10 mg/kg, 1 h, n = 8, read-out: plasma concentration, mean ± S.D) was 490 ± 160 ng/mL, the concentration at 2 h (female, ICR, mouse, plasma, po, 10 mg/kg, mice, oral 10 mg/kg, 2 h, n = 8, read-out: plasma concentration, mean ± S.D) was 360 ± 210 ng/mL and the concentration at 3 h (female, ICR, mouse, plasma, po, 10 mg/kg, mice, oral 10 mg/kg, 3 h, n = 8, read-out: plasma concentration, mean ± S.D) was 220 ± 150 ng/mL. It also gave a concentration at 4 h (female, ICR, mouse, plasma, po, 10 mg/kg, mice, oral 10 mg/kg, 4 h, n = 8, read-out: plasma concentration, mean ± S.D) of 150 ± 80 ng/mL, a concentration at 6 h (female, ICR, mouse, plasma, po, 10 mg/kg, mice, oral 10 mg/kg, 6 h, n = 8, read-out: plasma concentration, mean ± S.D) of 80 ± 30 ng/mL and a concentration at 8 h (female, ICR, mouse, plasma, po, 10 mg/kg, mice, oral 10 mg/kg, 8 h, n = 8, read-out: plasma concentration, mean ± S.D) of 50 ± 20 ng/mL. For the same compound, the concentration at 12 h (female, ICR, mouse, plasma, po, 10 mg/kg, mice, oral 10 mg/kg, 12 h, n = 8, read-out: plasma concentration, mean ± S.D) was 20 ± 10 ng/mL, the AUC(0-inf) [1] was 12200 ± 1350 ng·h/mL and the MRT [1] was 2.57 ± 0.19 h. For the same compound, the half-life [1] was 1.92 ± 0.28 h, the Vd (female, ICR, mouse, plasma, mice, 10 mg/kg, intravenous, read-out: Vz) was 2.17 ± 0.42 L/kg and the AUC(0-inf) [2] was 1670 ± 660 ng·h/mL. The Cmax [2] was 530 ± 180 ng/mL, the MRT [2] was 4.01 ± 0.62 h and the Tmax [2] was 1.37 ± 0.74 h. For the same compound, the bioavailability [2] was 13.7%, the half-life [2] was 2.91 ± 0.81 h and the Vd/F (female, ICR, mouse, plasma, mice, 10 mg/kg, oral, read-out: Vz/F) was 28.5 ± 9.01 L/kg. The “plasma concentration, individual mice” value (intraperitoneal 10 mg/kg, 0.083 h) was 0.94 µg/mL and 0.70 µg/mL and 0.61 µg/mL and 0.48 µg/mL and 0.79 µg/mL and 1.48 µg/mL and 0.68 µg/mL and 1.14 µg/mL, the “plasma concentration, individual mice” value (intraperitoneal 10 mg/kg, 0.25 h) was 0.98 µg/mL and 1.39 µg/mL and 1.10 µg/mL and 0.89 µg/mL and 1.15 µg/mL and 2.26 µg/mL and 1.20 µg/mL and 0.78 µg/mL and the “plasma concentration, individual mice” value (intraperitoneal 10 mg/kg, 0.5 h) was 0.81 µg/mL and 1.39 µg/mL and 1.54 µg/mL and 0.58 µg/mL and 0.89 µg/mL and 1.48 µg/mL and 0.54 µg/mL and 0.61 µg/mL. The “plasma concentration, individual mice” value (intraperitoneal 10 mg/kg, 0.75 h) was 0.42 µg/mL and 0.40 µg/mL, the “plasma concentration, individual mice” value (intravenous 10 mg/kg, 0.083 h, 10 mg/kg) was 4.5 µg/mL and 3.97 µg/mL and 3.15 µg/mL and 4.2 µg/mL and 5.1 µg/mL and 3.25 µg/mL and 4.31 µg/mL and the “plasma concentration, individual mice” value (intravenous 10 mg/kg, 0.25 h, 10 mg/kg) was 3.07 µg/mL and 3.57 µg/mL and 3.78 µg/mL and 4.44 µg/mL and 3.64 µg/mL and 4.65 µg/mL and 4.18 µg/mL. For the same compound, the “plasma concentration, individual mice” value (intravenous 10 mg/kg, 0.5 h, 10 mg/kg) was 3.66 µg/mL and 3.82 µg/mL and 3.09 µg/mL and 3.18 µg/mL and 4.31 µg/mL and 3.98 µg/mL and 3.54 µg/mL, the “plasma concentration, individual mice” value (intravenous 10 mg/kg, 0.75 h, 10 mg/kg) was 3.46 µg/mL and 4.22 µg/mL and 3.49 µg/mL and 2.98 µg/mL and 4.21 µg/mL and 3.48 µg/mL and 2.31 µg/mL and the “plasma concentration, individual mice” value (intravenous 10 mg/kg, 1 h, 10 mg/kg) was 3.90 µg/mL and 3.62 µg/mL and 3.02 µg/mL and 2.02 µg/mL and 2.52 µg/mL and 2.95 µg/mL and 3.40 µg/mL and 4.09 µg/mL. The “plasma concentration, individual mice” value (intravenous 10 mg/kg, 2 h, 10 mg/kg) was 1.56 µg/mL and 1.41 µg/mL and 2.31 µg/mL and 2.00 µg/mL and 2.56 µg/mL and 2.83 µg/mL and 3.14 µg/mL and 2.61 µg/mL, the “plasma concentration, individual mice” value (intravenous 10 mg/kg, 4 h, 10 mg/kg) was 0.99 µg/mL and 1.32 µg/mL and 1.00 µg/mL and 1.10 µg/mL and 0.89 µg/mL and 0.79 µg/mL and 0.94 µg/mL and the “plasma concentration, individual mice” value (intravenous 10 mg/kg, 6 h, 10 mg/kg) was 0.31 µg/mL and 0.43 µg/mL and 0.54 µg/mL and 0.52 µg/mL and 0.29 µg/mL and 0.34 µg/mL and 0.44 µg/mL. For the same compound, the “plasma concentration, individual mice” value (intravenous 10 mg/kg, 8 h, 10 mg/kg) was 0.10 µg/mL and 0.16 µg/mL and 0.30 µg/mL and 0.24 µg/mL and 0.19 µg/mL and 0.12 µg/mL and 0.28 µg/mL and 0.32 µg/mL, the “plasma concentration, individual mice” value (intravenous 10 mg/kg, 12 h, 10 mg/kg) was 0.03 µg/mL (2×) and 0.05 µg/mL (3×) and 0.08 µg/mL and 0.04 µg/mL and 0.06 µg/mL and the CLβ/F (mice, 10 mg/kg, intraperitoneal) was 68 ± 19 mL/min/kg. For the same compound, the CLβ (mice, 10 mg/kg, intravenous) was 13.7 ± 1.5 mL/min/kg and the CLβ/F (mice, 10 mg/kg, oral) was 105 ± 37.7 mL/min/kg.
